Results from patent US6034134A, “1-Amino-alkylcyclohexane NMDA receptor antagonists” (Merz + Co. GmbH & Co., priority 1998, dated 2000).
pIC50, pKi: −log10 of the molar value. Where two headings read alike, the source gives them in different places.

Experiments:
cortical neurones = experiment: Excitotoxicity: glutamate toxicity in cultured cortical neurones (MTT); assay type: cell-based, rat; details: Rattus norvegicus, Cortical neurone
Procedure: Cortical neurones were obtained from cerebral cortices of 17/18 day old fetal rats (Wistar), in general following the dissociation procedure described by. After short trypsinization and gentle trituration with fire-polished Pasteur pipettes, the cell suspension was washed by centrifugation. Cells were suspended in serum-free Neurobasal medium with B27 supplement (GIBCO) before plating onto poly-L-lysine (Sigma; 0.2 mg/ml, 20 h, 4° C.) and laminin (Sigma; 2 μg/ml, 1 h, 37° C.)-coated 96-well plates (Falcon, Primaria) at a density of 5×10^4 cells/well. Cortical neurones were maintained at 37° C. in humidified 10% CO2 /90% air. […] The medium was changed first after 4 days in vitro and then every 4 days by replacing 2/3 of the medium with astrocyte-conditioned medium. Cortical neurones between day 12 and 14 in culture were used for the experiments.
New-born rat astrocytes were isolated non-enzymatically according to the method of [24]. Briefly, both hemispheres were dissected from 2-day-old rats, passed through an 80 μm gauze, and triturated with Pasteur pipettes. Cell suspension was made in Dulbecco's modified essential medium (DMEM, Gibco) supplemented with 10% fetal calf serum (FCS, Hyclone), 2 mM glutamine (Gibco) and 50 μg/ml gentamycin and transferred into untreated, plastic culture flasks (Corning; […]). Two days after plating the flasks were shaken for 10 minutes on a rotary platform (150 U/min) to remove microglial cells. The cultures were grown to confluency within 14 days, and the culture medium was changed twice weekly. Thereafter, the glial monolayers were extensively washed with serum-free Neurobasal medium (Gibco) to remove the serum. Flasks were then shaken several times to remove oligodendrocytes and neurones. To obtain conditioned medium from primary astrocytes, the cultures were incubated with fresh Neurobasal medium supplemented with B27 andglutamine. Every 2-3 days the conditioned medium was collected and replaced by fresh medium up to 4 times.
Exposure to EAA was performed in serum-free Neurobasal medium containing 100 μM glutamate and the drug to be tested. After 20 h of incubation, the cytotoxic effect was morphologically examined under a phase contrast microscope and biochemically quantified by measuring cell viability with the MTT test (Promega). This calorimetric assay measures the reduction of a tetrazolium component (MTT) into an insoluble formazan product by the mitochondria of living cells. After incubation of the cortical neurones with the dye solution for approximately 1-4 hours, a solubilization solution was added to lyse the cells and solubilize the colored product (incubation overnight at 37° C., 10% CO2, 90% RH). These samples were then read using an Elisa plate reader (Thermomax, MWG Biotech) at a wavelength of 570 nm. The amount of color produced was directly proportional to the number of viable cells.
(§1) IC50 s in patch clamp, excitotoxicity, and binding studies were calculated according to the four parameter logistic equation using the Grafit computer program (Erithacus Software, England). Ki value for binding studies were then determined according to Cheng and Prusoff. Binding values presented are means±SEM of 3-5 determinations (each performed in duplicate). […] Pearson product moment correlation analysis (Sigma Stat, Jandel Scientific) was used to compare in vitro potencies and in vivo anticonvulsant activity.

[1] = Traction reflex test (myorelaxant action) in mice, therapeutic index versus MES; assay type: in vivo; details: ED50 for traction reflex impairment divided by ED50 for MES; 30 min
Procedure: (§2) NMR female mice (18-28 g) housed 5 per cage were used for the maximal electroshock (MES) and motor impairment tests. […] All compounds were dissolved in 0.9% saline.
(§3) The MES test was performed together with tests for myorelaxant action (traction reflex) and motor coordination (rotarod). For the traction reflex test mice were placed with their forepaws on a horizontal rod and were required to place all 4 paws on the wire within 10 seconds. To test ataxia (motor coordination) mice were placed on rotarod (5 rpm) and were required to remain on the rod for 1 minute. […] These tests were followed by MES (100 Hz, 0.5 second shock duration, 50 mA shock intensity, 0.9 ms impulse duration, Ugo Basile) applied through corneal electrodes. The presence of tonic convulsions was scored (tonic extension of hind paws with minimum angle to the body of 90°). The aim was to obtain ED50 s for all parameters scored (anticonvulsive activity and motor side effects) with use of the Litchfield Wilcoxon test for quantal dose responses. Division of the ED50 for side effects (ataxia or myorelaxation) by the ED50 for antagonism of electroshock convulsions was used as a therapeutic index (TI). […]

[2] = Maximal electroshock (MES)-induced convulsions in mice; assay type: in vivo; details: for ED50: Mus musculus, ip, 0.5 h, read-out: MES ED50
Procedure: as §2, §3

NMDA receptor = experiment: [3H]-(+)-MK-801 binding to rat cortical membranes; details: for pKi: read-out: MK-801 Ki, Table 9, Cheng-Prusoff with Kd for MK-801 of […]; for pIC50: read-out: [3H] MK-801 IC50, Table 7, footnote calls the values Ki
Procedure: Male Sprague-Dawley rats (200-250 g) were decapitated and their brains were removed rapidly. The cortex was dissected and homogenized in 20 volumes of ice-cold 0.32 M sucrose using a glass-Teflon homogenizer. The homogenate was centrifuged at 1000 ×g for 10 minutes. The pellet was discarded and the supernatant centrifuged at 20,000 ×g for 20 minutes. The resulting pellet was re-suspended in 20 volumes of distilled water and centrifuged for 20 minutes at 8000 ×g. Then the supernatant and the buffy coat were centrifuged three times (48,000 ×g for 20 minutes) in the presence of 50 mM Tris-HCl, pH 8.0. All centrifugation steps were carried out at 4° C. After resuspension in 5 volumes of 50 mM Tris-HCl, pH 8.0 the membrane suspension was frozen rapidly at -80° C. On the day of assay the membranes were thawed and washed four times by resuspension in 50 mM Tris-HCl, pH 8.0 and centrifugation at 48,000 ×g for 20 minutes. The final pellet was suspended in assay buffer. The amount of protein in the final membrane preparation was determined according to the method of Lowry with some modifications. The final protein concentration used for our studies was between 250-500 μg/ml.
Membranes were re-suspended and incubated in 50 mM Tris-HCl, pH 8.0. […] Incubations were terminated using a Millipore filter system. The samples were rinsed three times with 2.5 ml ice cold assay buffer over glass fiber filters obtained from Schleicher & Schuell under a constant vacuum. Filtration was performed as rapidly as possible. Following separation and rinse, the filters were placed into scintillation liquid (5 ml; Ultima Gold) and radio activity retained on the filters was determined with a conventional liquid scintillation counter (Hewlett Packard, Liquid Scintillation Analyser).
as §1

[3] = Table 7, 100 μM glutamate, 20 h, read-out: Glut. Tox. IC50
[4] = Table 9, 100 μM glutamate, read-out: Glut Tox IC50
[5] = Table 7, mice, i.p., 30 min before
[6] = Table 8, mice, i.p., 95% confidence limits in parentheses

| SMILES | pIC50 (cortical neurones; [3]) | pIC50 (cortical neurones; [4]) | TI Tract [1] | ED50 [2, 5] | ED50 [2, 6] | pKi (NMDA receptor) | pIC50 (NMDA receptor) | pIC50 (cortical neurones; 20 h, read-out: Glut. Tox. IC50) | pIC50 (cortical neurones; read-out: Glut Tox IC50) | ED50 [2] | MES ED50 ([2]; Table 8, mice, i.p., 95% confidence limits in parentheses, 30 min) |
| --- | --- | --- | --- | --- | --- | --- | --- | --- | --- | --- | --- |
| CC[C@@]1(C)C[C@H](C)C[C@@](C)(N)C1 (relative stereo) [Mrz 2/622] | 4.71 | 4.71 | 1.1 | 21 mg/kg | 21 mg/kg | 4.88 | 4.82 |  |  |  |  |
| CCCC1(C)CCCC(C)(N)C1 (stereo not drawn) [Mrz 2/617] | < 4.15 | < 4.15 |  | 54.9 mg/kg | 54.9 mg/kg | 4.42 | 4.29 |  |  |  |  |
| CCC[C@]1(C)C[C@@H](C)C[C@@](C)(N)C1 (relative stereo) [Mrz 2/619] | 4.51 | 4.51 | 1.0 | 44.6 mg/kg | 44.6 mg/kg | 4.24 | 4.14 |  |  |  |  |
| CCC[C@@]1(C)C[C@H](C)C[C@@](C)(N)C1 (relative stereo) [Mrz 2/618] | 4.75 | 4.75 | 1.2 | 24 mg/kg | 24 mg/kg | 4.62 | 4.49 |  |  |  |  |
| CCC[C@@H]1CCC[C@@](C)(N)C1 (relative stereo) [Mrz 2/627] | 4.58 | 4.58 | 0.8 | 43.9 mg/kg | 43.9 mg/kg | 4.15 | 4.15 |  |  |  |  |
| CCC1(CC)CC(C)(C)CC(C)(N)C1 (stereo not drawn) [Mrz 2/623, 1-amino-1,5,5-trimethyl-3,3-diethylcyclohexane] | 5.35 | 5.35 | 1.4 | 13.1 mg/kg | 13.1 mg/kg | 5.50 | 5.48 |  |  |  |  |
| CN(C)C1(C)CC(C)(C)CC(C)(C)C1 [Mrz 2/642] |  |  | 4.1 |  |  | 4.90 | 4.99 | 4.53 | 4.53 | 8.04 mg/kg | 8.04 (5.1-12.7) mg/kg |
| CC[C@@H]1CCC[C@@](C)(N)C1 (relative stereo) [Mrz 2/629] | < 3.52 | < 3.52 | 0.9 | 58.5 mg/kg | 58.5 mg/kg | 4.31 | 4.40 |  |  |  |  |
| CCC[C@H]1CCC[C@@](C)(N)C1 (relative stereo) [Mrz 2/628] | 4.56 | 4.56 | 0.8 | 73.2 mg/kg | 73.2 mg/kg | 4.31 | 4.45 |  |  |  |  |
| CC1(C)CC(CCN)CC(C)(C)C1 [Mrz 2/644] | 5.37 | 5.37 | 0.5 | 53 mg/kg | 53 mg/kg | 5.32 | 5.42 |  |  |  |  |
